From patent US8980845B2, “Biotechnological production of cyanophycin dipeptides” (Westfälische Wilhelms-Universität Münster, priority 2008, dated 2015)
Values joined by “and” are separate entries in the source; they are usually repeats but may differ in a detail not shown here. Equal entries are not always repeated. “Also recorded” adds a separate entry of the source. Where two headings read alike, the source gives them in different places. Marks after values point to notes of the source that are not given here. Each block holds one molecule with its values, some of them ahead of it.

Columns and labels:
[1] = test system: Caco2 cells (human-colon epithelial adenocarcinoma cells); details: Caco-2, 113 h
Protocol: (§3) A Dulbecco's Modified Eagle Medium (DMEM) containing 20% Fetal Calf Serum (FCS) and 1% of 2 mM Glutamine solution was used as cultivation medium. About 7000 Caco2 cells per well were disseminated in a 24-well plate and incubated at 37° C. under an atmosphere of 5% CO2 and about 98% humidity. The cells were checked microscopically on a daily basis until forming monolayer after nearly 50 h. […] A well line was supplied with fresh 700 μl of the incubation medium without the latter additives and was considered as control. Samples were taken after incubation periods of 0, 13, 22, 67 and 113 h and were analyzed by HPLC as described by Sallam and Steinbüchel (J. App. Microbiol. DOI: 10.1111/j.1365-2672.2009.04221.x) to determine the change of concentrations of the tested dipeptides and amino acids.

[2] = low dose intravenous (IV) infusion; cited from earlier work
[3] = test system: Caco2 cells (human-colon epithelial adenocarcinoma cells); assay: Absorption of CGP dipeptides by Caco2-cell cultures; details: after 113 h of incubation; medium with 350 μg/ml CGP dipeptides (90% Asp-Arg: 10% Asp-Lys)
Protocol: as §3

[4] = test system: purified CphEal from P. alcaligenes strain DIP1; assay: Effect of group-specific inhibitors on purified CphEal, activity on CGP-overlay agar plates; type: biochemical; details: for Inhibition of CphEal (in words): assayed on CGP-overlay agar plates and by HPLC analysis
Protocol: (§1) To reveal the effect of enzyme inhibitors on the purified CphEal, 50 μl aliquots of the purified enzyme stalk solution were added to 450 μl of Na-phosphate buffer (50 mM) and incubated for 2 h at 30° C. in the presence of one of the following Group-specific inhibitors; Leupeptin (thiol-proteases), EDTA (metalloproteases), Pefabloc (serine-proteases), PMSF (serine-proteases) or N-bromosuccinimide (tryptophan residues).
(§2) To gain information on the catalytic mechanism of CphEal, inhibitor experiments were conducted employing different group-specific inhibitors (Table 1).

[5] = test system: purified CphEal from P. alcaligenes strain DIP1; assay: Effect of group-specific inhibitors on purified CphEal, HPLC analysis of CGP degradation products; type: biochemical; details: for HPLC analysis (Inhibition %) high inhibitor concentration: high concentration (mM): Leupeptin 0.01, EDTA 60, Pefabloc 80, PMSF 10, NBS 5; for HPLC analysis (Inhibition %) high inhibitor concentration / HPLC analysis (Inhibition %) low inhibitor concentration: 2 h at 30° C., refers to control without inhibitor; for HPLC analysis (Inhibition %) low inhibitor concentration: low concentration (mM): Leupeptin 0.001, EDTA 30, Pefabloc 8, PMSF 1, NBS 1
Protocol: as §1, §2

[6] = test system: P. alcaligenes strain DIP1; assay: Induction of CphEal production in cultures of strain DIP1; type: cell-based
Protocol: The activity of the cyanophycinase (CphEal) was inspected by formation of degradation halos on CGP-overlay agar plates by small aliquots of concentrated enzyme solutions, for this, 5 ml culture samples were centrifuged at 2800×g for 30 min (Megafuge 1.0 R, Heraeus Sepatech GmbH, Osterode, Germany) and 4 ml of the resulting supernatant were concentrated 100 folds by ultrafiltration. For the quantitative determination of the enzyme in culture samples, a photometric method was developed as follows; 2 μl of the concentrated culture supernatant were added to 1 ml of a CGP suspension (100 mg l^−1) and incubated at 30° C. for 30 min in a tube rotator (3 rpm, type 502 S, Watson-Marlow GmbH, Rommerskirchen, Germany). Finally, OD600 nm of samples was measured to indicate the decrease in CGP amount due to degradation; this in turn was used to indicate the concentration of CphEal in solutions through the respective calibration curve.
To conclude the optimum cultivation conditions for maximum production of CphEal by strain DIP1, cells were cultivated on different concentrations of citrate under optimum growth conditions, when cells reached the stationary phase; CphEal production was induced by the addition of 0.25 g CGP.
During the following 5 h, supernatant samples were concentrated (100 folds) and screened for degradation activity on CGP-overlay agar plates as well as photometrically.
All inductors were tested first at a concentration of 0.25 g l^−1 and CphEal production was assayed on CGP-overlay agar plates and also photometrically.

[7] = 250 mg/kg/day oral for seven days, five healthy subjects aged 20 to 35; cited from earlier work
CGP = details: data from literature, cited from earlier work

Molecule: N=C(N)NCCC[C@H](N)C(=O)O [free arginine, L-arginine]
- Absorption by Caco2 cells (HPLC analysis of the medium samples) [1]: 41%
- Serum GH levels [2]: significant increase

Molecule: NC(N)=NCCC[C@H](NC(=O)C[C@H](N)C(=O)O)C(=O)O [cyanophycin Asp-Arg dipeptides, β-aspartate-arginine]
- Absorption by Caco2 cells (HPLC analysis of the medium samples) [3]: approximately 60%

Molecule: O=C1CCC(=O)N1Br [NBS, N-bromosuccinimide]
- Inhibition of CphEal (in words) [4]: totally inhibited; also recorded: total inhibition
- HPLC analysis (Inhibition %) high inhibitor concentration [5]: 100%
- HPLC analysis (Inhibition %) low inhibitor concentration [5]: 100%

Molecule: CC(=O)N[C@@H](CC(C)C)C(=O)N[C@@H](CC(C)C)C(=O)N[C@H](C=O)CCCNC(=N)N [Leupeptin]
- Formation of degradation halos by CphEal on CGP-overlay agar plates in presence of inhibitor [4]: no activity inhibition
- Formation of degradation halos by CphEal on CGP-overlay agar plates in presence of inhibitor ([4]; listed as leupeptin): not affected
- HPLC analysis (Inhibition %) high inhibitor concentration [5]: 39%
- HPLC analysis (Inhibition %) low inhibitor concentration [5]: 10%

Molecule: Cl.NCCc1ccc(S(=O)(=O)F)cc1 [Pefabloc ®, 4-(2-aminoethyl) benzensulfonylfluoride•HCl]
- Inhibition of CphEal (in words) ([4]; listed as Pefabloc): strongly inhibited
- Inhibition of CphEal (in words) ([4]; listed as Pefabloc®): largely inhibited
- HPLC analysis (Inhibition %) high inhibitor concentration [5]: 100%
- HPLC analysis (Inhibition %) low inhibitor concentration [5]: 91%

Molecule: O=S(=O)(F)Cc1ccccc1 [PMSF, Phenylmethylsulfonylfluoride]
- Inhibition of CphEal (in words) [4]: largely inhibited; also recorded: strongly inhibited
- HPLC analysis (Inhibition %) high inhibitor concentration [5]: 57%
- HPLC analysis (Inhibition %) low inhibitor concentration [5]: 0%

Molecule: NCCCC[C@H](NC(=O)C[C@H](N)C(=O)O)C(=O)O [cyanophycin Asp-Lys dipeptides, β-aspartate-lysine]
- Absorption by Caco2 cells (HPLC analysis of the medium samples) [3]: 68%

Molecule: N[C@@H](CC(=O)O)C(=O)O [L-aspartic acid]
- CphEal production after induction in comparison to cultures induced with optimum CGP concentration (0.05 g l^−1) ([6]; 4 g l^−1 aspartate, 5 h): only the third
- Time after induction at which maximum CphEal production was obtained ([6]; at optimum inductor concentration): 5 h
- Inductor concentration giving maximum CphEal production ([6]; cultures of strain DIP1 under optimal production conditions): 4 g/L
- Induction of CphEal production ([6]; inductors tested at 0.25 g l^−1, CGP-overlay agar plates and photometrically): induced significant amounts

Molecule: L-Arginine-L-Aspartate [arginine aspartate]
- Rise in GH during slow wave sleep [7]: 60%

- Inhibition of the CGPase, HPLC analysis of samples treated with EDTA ([5]; stated to be due to precipitates during OPA-derivatization): about 75%
Molecule: O=C(O)CN(CCN(CC(=O)O)CC(=O)O)CC(=O)O [EDTA]
- Formation of degradation halos by CphEal on CGP-overlay agar plates in presence of inhibitor [4]: no activity inhibition; also recorded: not affected
- HPLC analysis of inhibitor-treated samples (in words) [5]: showed inhibition
- HPLC analysis (Inhibition %) high inhibitor concentration [5]: 75^c %
- HPLC analysis (Inhibition %) low inhibitor concentration [5]: 65^c %

Molecule: NCCCC[C@H](N)C(=O)O [free L-lysine, L-lysine]
- Absorption by Caco2 cells (HPLC analysis of the medium samples) [1]: 51%

B1: CphB: intracellular cyanophycinase of Synechocystis sp. PCC 6803 (protein, UniProt P73832 2-271, looked up)
Cyanophycinase: PLSSQPAILIIGGAEDKVHGREILQTFWSRSGGNDAIIGIIPSASREPLLIGERYQTIFSDMGVKELKVLDIRDRAQGDDSGYRLFVEQCTGIFMTGGDQLRLCGLLADTPLMDRIRQRVHNGEISLAGTSAGAAVMGHHMIAGGSSGEWPNRALVDMAVGLGIVPEIVVDQHFHNRNRMARLLSAISTHPELLGLGIDEDTCAMFERDGSVKVIGQGTVSFVDARDMSYTNAALVGANAPLSLHNLRLNILVHGEVYHQVKQRAFPRVT
- Mechanism (CGP; cell wrapped: Exo-peptidase): Exo-
- CGP degradation products (CGP): β-Asp-Arg
- Inhibitors (CGP): PMSF, and 3,4-dichloro- and Pefabloc ®,
- Optimum pH range (CGP): 7-8^
- Optimum temperature (CGP): 35 °C
